Test results from ChEMBL document CHEMBL2384978, “The opposite effect of isotype-selective monoamine oxidase inhibitors on adipogenesis in human bone marrow mesenchymal stem cells” (2013).
Calls of active or inactive are those of the source. No cut-off for these calls is given here.

Columns and labels:
Type in all cases: functional
[1] = Induction of adipogenesis in human bone marrow MSC assessed as formation of intracellular lipid droplets at 10 uM after 15 days by oil red O staining in IDX condition relative to control
[2] = test system: MSC; test: Induction of adipogenesis in human bone marrow MSC assessed as adiponectin production at 30 uM after 14 days by ELISA relative to control
[3] = test system: MSC; test: Induction of SSAO-mediated adipogenesis in human bone marrow MSC assessed as adiponectin level at 0.1 to 1 mM after 14 days by ELISA
[4] = test system: MSC; test: Induction of adipogenesis in human bone marrow MSC assessed as MAO-B up-regulation by RT-PCR analysis
[5] = test system: MSC; test: Induction of adipogenesis in human bone marrow MSC assessed as AOC3 up-regulation by RT-PCR analysis
[6] = test system: MSC; test: Induction of adipogenesis in human bone marrow MSC assessed as MAO-A up-regulation by RT-PCR analysis
[7] = test system: MSC; test: Induction of adipogenesis in human bone marrow MSC assessed as adiponectin up-regulation by RT-PCR analysis
[8] = test system: MSC; test: Induction of adipogenesis in human bone marrow MSC assessed as PPARgamma up-regulation by RT-PCR analysis
[9] = test system: MSC; test: Induction of adipogenesis in human bone marrow MSC assessed as AOC2 up-regulation by RT-PCR analysis
[10] = test system: MSC; test: Induction of adipogenesis in human bone marrow MSC assessed as adiponectin production after 14 days by ELISA in IDX condition

Which Activity [1] does the source give for `NCCNC(=O)c1ncsc1-c1cccc(F)c1` here?
The Activity was 49%.

What about the Activity [2] of the same compound?
Its Activity is “Active”.

For `NNC(N)=O`, which Activity [3] is on record?
Its Activity is “inactive”.

For `N[C@@H]1C[C@H]1c1ccccc1.N[C@H]1C[C@@H]1c1ccccc1` (racemic) [TRANYLCYPROMINE], which Activity [1] is on record?
Its Activity is 79%.

What does the source list for `COc1ccc(Cl)cc1C(=O)NCCc1ccc(S(=O)(=O)NC(=O)NC2CCCCC2)cc1` [GLYBURIDE]?
Activity [1]: 134%; Activity [4]: Active; Activity [5]: Active; Activity [6]: Active; Activity [7]: Active; Activity [8]: Active; Activity [9]: Active

Which results are given for `O=C(NCCN1CCOCC1)c1ccc(Cl)cc1` [MOCLOBEMIDE]?
Activity [1]: 146%; Activity [10]: Dose-dependent effect

Which results are given for `C#CCN(C)Cc1ccccc1` [PARGYLINE]?
Activity [1]: 54%; Activity [2]: Active

With `NNCCc1ccccc1` [PHENELZINE] as the compound, how does the Activity [1] read?
Its Activity is 85%.

What does the source list for `C#CCN(C)[C@H](C)Cc1ccccc1` [SELEGILINE]?
Activity [1]: 105%; Activity [10]: Dose-dependent effect
